Series [1] concerns Yellow nutsedge (Cyperus esculentus). In words: Postemergence herbicidal activity, greenhouse spray. The class given is in vivo. The following applies: visual score after 2 weeks; for pest or weed control at 500 ppm / pest or weed control at 125 ppm: Cyperus, post-emergence, 336 h, read-out: Post-emergent % control CYPES. The protocol:
(§1) When required to ensure good germination and healthy plants, a fungicide treatment and/or other chemical or physical treatment was applied. The plants were grown for 7-21 days in a greenhouse with an approximate 15 hr photoperiod which was maintained at about 23-29° C. during the day and 22-28° C. during the night. Nutrients and water were added on a regular basis and supplemental lighting was provided with overhead metal halide 1000-Watt lamps as necessary. The plants were employed for testing when they reached the first or second true leaf stage. A weighed amount, determined by the highest rate to be tested, of each test compound was placed in a 20 mL glass vial and was dissolved in 4 mL of a 97:3 v/v (volume/volume) mixture of acetone and dimethyl sulfoxide (DMSO) to obtain concentrated stock solutions. […] The concentrated stock solutions obtained were diluted with an aqueous mixture containing acetone, water, isopropyl alcohol, DMSO, At plus 411 F crop oil concentrate, and Triton X-155 surfactant in a 48.5:39:10:1.5:1.0:0.02 v/v ratio to obtain spray solutions of known concentration. The solutions containing the highest concentration to be tested were prepared by diluting 2 mL aliquots of the stock solution with 13 mL of the mixture and lower concentrations were prepared by serial dilution of the stock solution. Approximately 1.5 mL aliquots of each solution of known concentration were sprayed evenly onto each of the test plant pots using a DeVilbiss atomizer driven by compressed air pressure of 2 to 4 psi (140 to 280 kiloPascals) to obtain thorough coverage of each plant. Control plants were sprayed in the same manner with the aqueous mixture. […] The treated plants and control plants were placed in a greenhouse as described above and watered by sub-irrigation to prevent wash-off of the test compounds.

Series [2] concerns Cocklebur (Xanthium strumarium). The series is described as above. It is filed as in vivo. The following applies: visual score after 2 weeks; for pest or weed control at 500 ppm / pest or weed control at 125 ppm: Xanthium strumarium, post-emergence, 336 h, read-out: Post-emergent % control XANST. How it is done:
as §1

In series [3] the test system is Lambsquarter (Chenopodium album). The description is as above. The class given is in vivo. The following applies: visual score after 2 weeks; for pest or weed control at 500 ppm / pest or weed control at 125 ppm: Chenopodium album, post-emergence, 336 h, read-out: Post-emergent % control CHEAL. The protocol: as §1
The test system of series [4] is Barnyardgrass (Echinochloa crus-galli). Described as above. The class given is in vivo. The following applies: visual score after 2 weeks; for pest or weed control at 500 ppm / pest or weed control at 125 ppm: Echinochloa crus-galli, post-emergence, 336 h, read-out: Post-emergent % control ECHCG. How it is done: as §1
Setting [5] is: Table 1, rate 500 ppm, 0 no injury, 100 complete kill.

Here are results for 27 compounds from patent US6784137B2, “6-aryl-4-aminopicolinates and their use as herbicides” (Dow AgroSciences LLC, priority 2001, dated 2004).

Read-outs that look alike come from different tables or passages of the source.

With `COC(=O)c1nc(-c2ccccc2F)cc(N)c1Cl` [Compound 33, Methyl 4-amino-3-chloro-6-(2-fluorophenyl)pyridine-2-carboxylate], the pest or weed control at 500 ppm is 10% in series [1] (Table 1, rate 500 ppm); 100% in series [2] (setting [5]); 100% in series [3] (Table 1, rate 500 ppm); 30% in series [4] (Table 1, rate 500 ppm).

In general, melting point refers to the temperature, or range, at which the solid turns liquid. Regarding `Nc1c(F)c(C(=O)O)nc(-c2ccc(Cl)cc2F)c1F` [Compound 206, 4-Amino-3,5-difluoro-6-(4-chloro-2-fluorophenyl)pyridine-2-carboxylic acid], the melting point lay within 155 to 156 °C. In addition, the pest or weed control at 500 ppm in series [1] (Table 1, rate 500 ppm) is 70%. Further, in series [2] (setting [5]), the pest or weed control at 500 ppm was found to be 99%. The pest or weed control at 500 ppm in series [3] (Table 1, rate 500 ppm) was determined as 95%. Further, the pest or weed control at 500 ppm in series [4] (Table 1, rate 500 ppm) came out at 85%.

Consider `Nc1c(F)c(C(=O)O)nc(-c2ccc(C(F)(F)F)cc2)c1F` [Compound 200, 4-Amino-3,5-fluoro-6-(4-(trifluoromethyl)phenyl)pyridine-2-carboxylic acid], for which the “Post-emergent % control CYPES” value in series [1] (Table 1, rate 500 ppm) is listed as 90%; in series [1] (Table 2, rate 125 ppm), 90%. For the same compound, the “Post-emergent % control XANST” value in series [2] (setting [5]) worked out at 100%; in series [2] (Table 2, rate 125 ppm), 90%. The “Post-emergent % control CHEAL” value is 95% in series [3] (Table 1, rate 500 ppm) and 80% in series [3] (Table 2, rate 125 ppm). Further, the “Post-emergent % control ECHCG” value in series [4] (Table 1, rate 500 ppm) is recorded as 95%; in series [4] (Table 2, rate 125 ppm), 70%.

Turning to `COC(=O)c1nc(-c2ccc(Cl)s2)cc(N)c1Cl` [Compound 98, Methyl 4-amino-3-chloro-6-(5-chloro-2-thienyl)pyridine-2-carboxylate], the pest or weed control at 125 ppm worked out at 70% in series [1] (Table 1, rate 125 ppm); 90% in series [2] (Table 1, rate 125 ppm); 90% in series [3] (Table 1, rate 125 ppm); 50% in series [4] (Table 1, rate 125 ppm).

For `Nc1c(F)c(-c2ccc(Cl)cc2)nc(C(=O)O)c1Cl` [Compound 183, 4-Amino-3-chloro-5-fluoro-6-(4-chlorophenyl)pyridine-2-carboxylic acid], the pest or weed control at 125 ppm in series [1] (Table 2, rate 125 ppm) is 100%; in series [2] (Table 2, rate 125 ppm), 100%; in series [3] (Table 2, rate 125 ppm), 100%; in series [4] (Table 2, rate 125 ppm), 100%.

Turning to `Nc1c(Cl)c(C(=O)O)nc(-c2ccc(C(F)(F)F)cc2)c1Cl` [Compound 171, 4-Amino-3′,5-dichloro-6-[4-(trifluoromethyl)phenyl]pyridine-2-carboxylic acid], in series [1] (Table 1, rate 500 ppm), the “Post-emergent % control CYPES” value is 60%. The “Post-emergent % control XANST” value in series [2] (setting [5]) came out at 100%. Further, the “Post-emergent % control CHEAL” value in series [3] (Table 1, rate 500 ppm) is listed as 95%. Also, the “Post-emergent % control ECHCG” value in series [4] (Table 1, rate 500 ppm) is given as 80%.

Turning to `COC(=O)c1nc(-c2ccc(C)nn2)cc(N)c1Cl` [Compound 121, Methyl 4-amino-3-chloro-6-(3-(6-methyl)pyridazinyl)pyridine-2-carboxylate], in series [1] (Table 2, rate 125 ppm), the “Post-emergent % control CYPES” value amounted to 80%. Moreover, in series [2] (Table 2, rate 125 ppm), the “Post-emergent % control XANST” value is 100%. Moreover, in series [3] (Table 2, rate 125 ppm), the “Post-emergent % control CHEAL” value was 90%. In series [4] (Table 2, rate 125 ppm), the “Post-emergent % control ECHCG” value was 80%.

`COC(=O)c1nc(-c2cc(Cl)ccc2Cl)cc(NC(C)=O)c1Cl` [Compound 57, Methyl 4-acetamido-3-chloro-6-(2,5-dichlorophenyl)pyridine-2-carboxylate] had a melting point of 143 °C.

For `COC(=O)c1nc(-c2cc(C(F)(F)F)cc(C(F)(F)F)c2)cc(N)c1Cl` [Compound 46, Methyl 4-amino-3-chloro-6-(3,5-bis-(trifluoromethyl)phenyl)pyridine-2-carboxylate], the melting point is 139 to 140 °C.

In the case of `COC(=O)c1nc(-c2cnn(C)c2)cc(N)c1Cl` [Compound 124, Methyl 4-amino-3-chloro-6-(1-methyl-1H-pyrazol-4-yl)pyridine-2-carboxylate], the melting point lay within 174 to 176 °C.

Turning to `Cc1cc(F)c(-c2cc(N)c(Cl)c(C(=O)O)n2)cc1Cl` [Compound 192, 4-Amino-3-chloro-6-(5-chloro-2-fluoro-4-methylphenyl)pyridine-2-carboxylic acid], the melting point is 173 to 175 °C.

The compound `COC(=O)c1nc(-c2cccc(C#N)c2)cc(N)c1Cl` [Compound 42, Methyl 4-amino-3-chloro-6-(3-cyanophenyl)pyridine-2-carboxylate] came in with a melting point of 139 to 140 °C.

`Nc1c(Cl)c(C(=O)O)nc(-c2cccs2)c1Cl` [Compound 208, 4-Amino-3,5-dichloro-6-(2-thienyl)pyridine-2-carboxylic acid] came in with a melting point of 144 °C.

Regarding `COC(=O)c1nc(-c2ccc3c(c2Cl)OCO3)cc(NC(C)=O)c1Cl` [Compound 72, Methyl 4-acetamido-3-chloro-6-(2-chloro-3,4-methylenedioxyphenyl)pyridine-2-carboxylate], the melting point was 195 to 196 °C.

`COC(=O)c1nc(-c2ccc(C=O)cc2)cc(N)c1Cl` [Compound 41, Methyl 4-amino-3-chloro-6-(4-formylphenyl)pyridine-2-carboxylate] registered a melting point of 106 to 108 °C.

Regarding `Nc1cc(-c2nccs2)nc(C(=O)O)c1Cl` [Compound 222, 4-Amino-3-chloro-6-(2-thiazolyl)pyridine-2-carboxylic acid], the melting point fell in the range of 184 to 185 °C.

In turn, `COC(=O)c1nc(-c2cnn(C)c2)cc(NC(C)=O)c1Cl` [Compound 87, Methyl 4-acetamido-3-chloro-6-(1-methyl-1H-pyrazol-4-yl)pyridine-2-carboxylate] came in with a melting point of 177 to 178 °C.

The compound `COC(=O)c1nc(-c2ccc(Cl)c(Cl)c2)cc(N)c1Cl` [Compound 40, Methyl 4-amino-3-chloro-6-(3,4-dichlorophenyl)pyridine-2-carboxylate] gave a melting point of 170 °C.

For the compound `Nc1cc(-c2ccccc2Cl)nc(C(=O)O)c1Cl` [Compound 140, 4-Amino-3-chloro-6-(2-chlorophenyl)pyridine-2-carboxylic acid], the melting point was in the range of 196 to 197 °C.

`COC(=O)c1nc(-c2cnco2)cc(N)c1Cl` [Compound 7, methyl 4-amino-3-chloro-6-(5-oxazolyl)pyridine-2-carboxylate] yielded a melting point of 166 to 170 °C.

Turning to `Nc1cc(-c2ccccn2)nc(C(=O)O)c1Cl` [Compound 214, 4-Amino-3-chloro-6-(2-pyridinyl)pyridine-2-carboxylic acid], the melting point is 185 °C (dec.).

`COC(=O)c1nc(-c2ccc(OC)c(C)c2)cc(N)c1Cl` [Compound 80, Methyl 4-amino-3-chloro-6-(4-methoxy-3-methylphenyl)pyridine-2-carboxylate] displayed a melting point of 158 °C.

`Nc1cc(-c2cnco2)nc(C(=O)O)c1Cl` [Compound 231, 4-Amino-3-chloro-6-(5-oxazolyl)pyridine-2-carboxylic acid]: the melting point fell in the range of 166 to 170 °C.

As for `COC(=O)c1nc(-c2nnnn2C)cc(N)c1Cl` [Compound 10, Methyl 4-amino-3-chloro-6-(1-methyl-1H-tetrazol-5-yl)pyridine-2-carboxylate], the melting point fell in the range of 239 to 241 °C.

The compound `Nc1cc(-c2ccsc2)nc(C(=O)O)c1Cl` [Compound 216, 4-Amino-3-chloro-6-(3-thienyl)pyridine-2-carboxylic acid] returned a melting point of 184 °C.

Regarding `COC(=O)c1nc(-c2ccc(Cl)c(F)c2)cc(NC(C)=O)c1Cl` [Compound 60, Methyl 4-acetamido-3-chloro-6-(4-chloro-3-fluorophenyl)pyridine-2-carboxylate], the melting point was in the range of 156 to 157 °C.

In turn, `COC(=O)c1nc(-c2nc3ccccc3s2)cc(N)c1Cl` [Compound 9, Methyl 4-amino-3-chloro-6-(2-benzthiazolyl)pyridine-2-carboxylate] displayed a melting point of 224 °C.
